Test results from paper PMC7345637, “Characterization of Synthetic Tf2 as a NaV1.3 Selective Pharmacological Probe” (Biomedicines, 2020).

Experiments:
C57BL/6J mice = test: Spontaneous pain behaviors after intraplantar injection, wildtype mice; conditions: mouse, in vivo
From the text: For behavioral assessment, we used adult male wildtype or homozygous NaV1.9-deficient (NaV1.9^-/-) mice aged 6–8 weeks (~25g) on a C57BL/6J background. Homozygous Nav1.9 knockout mice on a C57BL/6J background were generated using CRISPR/Cas9 technology by the Queensland Facility for Advanced Genome Editing (The University of Queensland, Australia). In brief, two sgRNAs were designed to target exon 2 of the Scn11a gene. The deletion of exon 2 generated a frame shift mutation resulting in the introduction of stop codons in exon 3. […]
[…]. Mice were then placed individually into polyvinyl boxes (10 × 10 × 10 cm) and recorded by video for 20 min post-injection. The number of spontaneous pain behaviors, including licks, shakes, and flinches, were counted later by a blinded observer. Once spontaneous pain behavior had ceased, mechanical thresholds were assessed using an electronic von Frey apparatus (MouseMet Electronic von Frey, TopCat Metrology, Ely, UK), heat thresholds were assessed using the thermal probe test (MouseMet Thermal), and weight bearing was assessed using the Catwalk XT (Noldus Information Technology, Wageningen, The Netherlands) as previously described. To quantify weight bearing, the parameter ‘mean intensity of the 15 most intense pixels’ was used as a surrogate measure.
Data were plotted and analyzed by GraphPad Prism, versions 8.2.0 and 8.4.2. […]

NaV1.1 = conditions: cited from earlier work
From the text: (§1) Selective VGSC modulators remain useful tool compounds for delineating the contribution of particular isoforms to the excitability of neurons in both physiological and pathological states. […] In an attempt to rationally ...

NaV1.3 = conditions: cited from earlier work
From the text: as §1

mouse DRG neurons = assay type: cell-based
[1] = system: voltage-gated calcium channels (CaV); conditions: cited from earlier work
From the text: Tf2 caused Ca^2+ influx in both small and large mouse adult DRG neurons, which was surprising given NaV1.3 is only expressed at significant levels in embryonic sensory neurons or in adult neurons after axotomy. […] As DRG neurons in this study were isolated from all spinal levels, we cannot rule out the presence of these NaV1.3-expressing neurons in culture. However, given the definitive lack of proteomic evidenc ...

For O=C(Nc1ccc(S(=O)(=O)Nc2nccs2)cc1)C(c1ccccc1)c1ccccc1 [ICA-121431], the “effect on Tf2-induced spontaneous flinching” value (C57BL/6J mice) is given as “no effect on Tf2-induced spontaneous flinching”, the “activity at NaV1.1” value (NaV1.1) is given as “off-target activity at NaV1.1” and the NaV1.3 inhibition (NaV1.3) is given as “most potent NaV1.3 inhibitor described to the date”.

For NC1=N[C@H](O)[C@H]2[C@H]3O[C@]4(O)O[C@@H]([C@@H](O)[C@@]2(N1)[C@@H]4O)[C@]3(O)CO [TTX, tetrodotoxin], the “block of Tf2-induced DRG neuron activation” value (mouse DRG neurons) was “completely blocked”.

B1: kurtoxin: scorpion toxin from Parabuthus transvaalicus (protein, UniProt P58910 1-63, looked up)
Kurtoxin: KIDGYPVDYWNCKRICWYNNKYCNDLCKGLKADSGYCWGWTLSCYCQGLPDNARIKRSGRCRA
In the case of B1, the “modulation of voltage-gated calcium channels (CaV)” value [1] is listed as “modulate members of the family of voltage-gated calcium channels (CaV)”.
